Results on 4 compounds are retold here after article PMC4524497 (Bioorganic & medicinal chemistry, 2015).

pKi: −log10 of the molar value. Some results are limits rather than exact numbers.

In one data set the target is T1, σ2 receptor (Rattus norvegicus, UniProt Q5U3Y7).
T1 sequence (Q5U3Y7 1-176): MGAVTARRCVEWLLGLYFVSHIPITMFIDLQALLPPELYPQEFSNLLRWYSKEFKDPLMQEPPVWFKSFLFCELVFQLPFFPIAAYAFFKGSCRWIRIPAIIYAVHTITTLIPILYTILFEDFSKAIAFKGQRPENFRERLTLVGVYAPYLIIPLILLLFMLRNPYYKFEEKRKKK
As to the kind of experiment: σ2 receptor binding assay with [^3H]DTG in the presence of. The settings on record: for pKi: Ki-σ2, [^3H]DTG + 1 μM (+)-pentazocine, rat liver membranes, mean ± SEM.

The target in a further data set is T2, human VAChT (Homo sapiens, UniProt Q16572).
T2 sequence (Q16572 1-532): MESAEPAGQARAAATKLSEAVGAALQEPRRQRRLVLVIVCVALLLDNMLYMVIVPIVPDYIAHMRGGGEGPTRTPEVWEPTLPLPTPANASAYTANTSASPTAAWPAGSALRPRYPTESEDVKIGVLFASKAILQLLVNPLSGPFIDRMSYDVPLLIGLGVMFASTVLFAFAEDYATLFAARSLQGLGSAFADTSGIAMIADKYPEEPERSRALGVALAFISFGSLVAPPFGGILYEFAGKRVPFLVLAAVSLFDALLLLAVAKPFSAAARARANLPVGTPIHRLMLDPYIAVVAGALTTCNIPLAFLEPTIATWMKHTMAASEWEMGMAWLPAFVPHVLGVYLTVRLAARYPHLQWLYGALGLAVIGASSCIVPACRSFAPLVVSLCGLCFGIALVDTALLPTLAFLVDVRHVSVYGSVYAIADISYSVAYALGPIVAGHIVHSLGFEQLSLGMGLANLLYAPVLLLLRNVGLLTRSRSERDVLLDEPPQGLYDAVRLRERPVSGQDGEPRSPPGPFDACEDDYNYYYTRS
As to the kind of experiment: VAChT competitive binding assay with [^3H]vesamicol.

For data set [1] the following is noted: post-injection, human brain SPECT; cited from earlier work.
For the next data set, the system named is VAChT. The settings on record: brain of both NHP and human subjects; cited from earlier work.

The pKi is −log10 of the Ki, conventionally taken in molar units. Turning to `O=C(c1ccc(F)cc1)C1CCN(C2Cc3c(cccc3OCCF)CC2O)CC1` (racemic) [Compound 18a, (1-(8-(2-Fluoroethoxy)-3-hydroxy-1,2,3,4-tetrahydronaphthalen-2-yl)piperidin-4-yl)(4-fluorophenyl)methanone], the negative logarithm of the Ki (pKi) at σ2 receptor was less than 5.00. Turning to `O=C(c1ccc(F)cc1)C1CCN(C2Cc3c(cccc3OCCF)CC2O)CC1` (single isomer, unassigned; (-)) [(-)-18a, (-)-(1-(8-(2-Fluoroethoxy)-3-hydroxy-1,2,3,4-tetrahydronaphthalen-2-yl)piperidin-4-yl)(4-fluorophen-yl)-methanone], the “selectivity for VAChT versus σ receptors” value at human VAChT was > 10,000 fold. Also, the negative logarithm of the Ki (pKi) at σ2 receptor is less than 5.00. Also, the “VAChT/ σ2” value at σ2 receptor (selectivity ratio) is recorded as >10,000.

In the case of `OC1Cc2cccc([123I])c2CC1N1CCC(c2ccccc2)CC1` (single isomer, unassigned; (-)) [[^123I]IBVM, (-)-5-[^123I]iodo-benzovesamicol], in data set [1], the “time required for quantification of peak uptake in the target regions” value is given as “at least 6 hr”. Consider `O[C@@H]1Cc2cccc(OCC[18F])c2C[C@H]1N1CCC(c2ccccc2)CC1` [[^18F]FEOBV, [^18F]fluoroethoxy-benzovesamicol], for which the “delayed equilibrium of brain kinetics” value with VAChT is greater than 360 min p.i.
